Experimental data as given in article PMC3064226 (The Journal of Biological Chemistry, 2011).

Biological target: T1, PfnPrx (His6-nPrx1-164) (Plasmodium falciparum, UniProt Q8IJD0)
T1 sequence (Q8IJD0 1-164): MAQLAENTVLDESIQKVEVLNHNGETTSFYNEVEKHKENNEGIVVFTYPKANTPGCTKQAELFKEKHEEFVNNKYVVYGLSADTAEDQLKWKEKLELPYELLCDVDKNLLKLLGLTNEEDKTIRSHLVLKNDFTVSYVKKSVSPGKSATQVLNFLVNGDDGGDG
Assay: NADPH oxidation at […] nm, coupled to glutathione reductase/GSH/PfGrx1
Type: biochemical
Settings: read-out: apparent Km; 10 μM PfGrx1, 1 mM GSH, 200 μM NADPH, 100 mM HEPES pH 7.6, 1 mM EDTA, 25 °C

`CC(C)(OO)c1ccccc1` [cumene hydroperoxide] showed a Km of roughly 30 µM.
